Structures are written as SMILES.

What all share (assay type): in vivo
The test system of assay [1] is mosquitoes. Put plainly: Mosquito trap catch, Mosquito Magnet Pro units, Florida. The settings on record: release rates approx. 60 mg/day and 500 mg/day; 10-18 test days. As to the method: In tests performed in Florida using Mosquito Magnet Pro units, (R)-(+)-1-octyn-3-ol was compared with racemic 1-octyn-3-ol and (S)-(-)-1-octyn-3-ol at release rates of approximately 60 mg/day and 500 mg/day. The lures were rotated among the traps and compared to the same traps with no lure, all relative to a control trap. The (S)-(-)-1-octyn-3-ol caught an average of 39% more mosquitoes relative to the control than the traps when no lure was used (18 test days), the racemic 1-octyn-3-ol caught an average of 240% more mosquitoes than did no lure (10 test days), and the (R)-(+)-1-octyn-3-ol caught an average of 334% more mosquitoes than the traps with no lure (16 test days).

The test system of assay [2] is mosquitoes. Put plainly: Mosquito trap catch, Mosquito Magnet Liberty traps, Danbury, Conn. The settings on record: porous frit, 1 gram, releasing approx. 1 mg/h, rotated twice among four traps over eight days. As to the method: Tests were conducted with the Mosquito Magnet Liberty model manufactured by American Biophysics Corp. The traps were spaced 65-70 feet apart at the edge of a wetland in Danbury, Conn., at least 25 feet from any buildings. 1 gram of test chemical was added to a clean porous frit of the type normally used in the trap, releasing approximately 1 mg/h. (R)-(+)-1-octyn-3-ol, (S)-(-)-1-octyn-3-ol, (R)-(-)-1-octen-3-ol, and racemic 1-octen-3-ol were rotated twice among four traps over eight days, and the results for each attractant were compared.

The subject of assay [3] is mosquitoes. Put plainly: Mosquito trap catch with wax lure and CO2, model 1012 traps, Connecticut. The settings on record: wax lure, approx. 0.17 mg/hr release, CO2 approx. 140 ml/minute, average of four three-day cycles. As to the method:
The following tests were conducted in Connecticut in September 2004. Mosquito traps model 1012 manufactured by John W. Hock Company in Gainesville, Florida were used in these experiments. The traps use a stream of CO2 directed in the vicinity of a collection bag, with a fan used to blow mosquitoes into the bag. The light supplied with the trap was turned off. The traps were spaced 65-70 feet apart at the edge of a wetland in Danbury, Conn., at least 25 feet from any buildings. The (R) and (S)-1-octyn-3-ol was incorporated into a wax lure of the type manufactured by BioSensory, Inc. and placed near a stream of CO2 which was being released at a rate of approximately 140 ml/minute. The traps were operated from approximately 4:00 PM until 9:00 AM the next day. Daytime temperatures were 70-75° F. during the trials. Average weight loss from the wax lures during the test was approximately 4 mg/day, or 0.17 mg/hr. Three traps were used, with either (R)-1-Octyn-3-ol, (S)-1-Octyn-3-ol, or no treatment, rotated among the traps over a three-day cycle. Four complete cycles were performed and the results for each treatment were averaged.
The traps with no attractant were considered as the baseline catch of mosquitoes and the results of the catches with the isomers were compared to this baseline value.

Turning to `C#CC(O)CCCCC` (racemic) [racemic 1-octyn-3-ol, 1-octyn-3-ol], the “average more mosquitoes caught than the traps with no lure, relative to a control trap” value in the assay with mosquitoes [1] is 240%.
`C#C[C@H](O)CCCCC` [(R)-(+)-1-octyn-3-ol]: in the assay on mosquitoes [2], the “more mosquitoes caught than the trap with the 50:50 racemic mixture of 1-octen-3-ol” value is given as 34%. Further, in the assay with mosquitoes [1], the “average more mosquitoes caught than the traps with no lure, relative to a control trap” value worked out at 334%. Besides, the “more mosquitoes captured than the baseline (traps with no attractant)” value with mosquitoes [3] was 120%.
In the case of `C#C[C@@H](O)CCCCC` [(S)-(-)-1-octyn-3-ol], the “less mosquitoes caught than the trap with the 50:50 racemic mixture of 1-octen-3-ol” value in the assay with mosquitoes [2] turned out to be 23%. Also, the “average more mosquitoes caught than the traps with no lure, relative to a control trap” value in the assay with mosquitoes [1] was 39%. Further, the “more mosquitoes captured than the baseline (traps with no attractant)” value with mosquitoes [3] came to 65%.

The record behind these values is patent US20060193880A1, “Method and compositions for attracting mosquitoes employing (R)-(+)-isomers of 1-alkyn-3-ols” (Bedoukian Research, Inc., priority 2005, published 2006).
